{
  "source": "patent US8765710B2",
  "about": "“2′,4′-substituted nucleosides as antiviral agents” (Gilead Pharmasset LLC, priority 2007, dated 2014)",
  "key": {"[1]": {"tested_on": "HCV replicon RNA in Huh 7 cells (clone A cells)", "assay": "HCV replicon assay, clone A cells (replicon RNA by RT-PCR)", "assay_type": "cell-based", "description": "(§1) HCV replicon RNA-containing Huh 7 cells (clone A cells; Apath, LLC, St. Louis, Mo.) were kept at exponential growth in Dulbecco's modified Eagle's medium (high glucose) containing 10% fetal bovine serum, 4 mM L-glutamine and 1 mM sodium pyruvate, 1× nonessential amino acids, and G418 (1,000iug/m1). Antiviral assays were performed in the same medium without G418. Cells were seeded in a 96-well plate at 1,500 cells per well, and test compounds were added immediately after seeding. Incubation time 4 days. At the end of the incubation step, total cellular RNA was isolated (RNeasy 96 kit; Qiagen). Replicon RNA and an internal control (TaqMan rRNA control reagents; Applied Biosystems) were amplified in a single-step multiplex RT-PCR protocol as recommended by the manufacturer. The HCV primers and probe were designed with Primer Express software (Applied Biosystems) and covered highly conserved 5′-untranslated region (UTR) sequences (sense primer: • 5′-AGCCATGGCGTTAGTA(T)GAGTGT-3′ (SEQ ID NO:4); antisense primer: • 5′-TTCCGCAGACCACTATGG-3′ (SEQ ID NO:5); and probe: • 5′-FAM-[…]-TAMRA-3′ (SEQ ID NO:6)).\n(§2) To express the antiviral effectiveness of a compound, the threshold RT-PCR cycle of the test compound was subtracted from the average threshold RT-PCR cycle of the no-drug control (ΔCtHCV). […]"}, "[2]": {"assay": "MTS cytotoxicity assay, HepG2", "assay_type": "cell-based", "conditions": "human, HepG2 (liver) cells", "description": "(§3) Human cells lines Huh 7 and HepG2 (liver), BxPC3 (pancreatic) and CEM (lymphoid) are used for the MTS assays in 96 wells plates. Drugs are freshly diluted in media at 2×100 μM, 50 μM, 25 μM, 10 μM, 5 μM, 1 μM and 50 μl is dispensed in triplicate in the plates. The wells at the periphery of the plate contain 100 ul of media only and will be the blank controls. A replicate control with no drug is always performed in each plate. 50 μl of cells are added to the plate, at 2000 cells per well for Huh 7, HepG2 and PxPC3, and 5000 cells per well for CEM cells. No cells are added at the periphery of the plate. The media used for Huh 7, HepG2 and BxPC3 cells is DMEM with 10% FBS, and Penicillin/streptomycin, and RPMI with 10% FBS, and Penicillin/streptomycin for CEM cells. After 8 days of incubation at 37° C., 20 μl of MTS dye from the CellTiter 96 Aqueous One Solution Cell Proliferation Assay kit from Promega is added to each well and the plate incubated for 2 h at 37° C. The absorbance is then read at 490 nm using the microplate reader E1800 from Biotek. The signal is calculated by subtracting the absorbance measured in the blank controls. The CC50 (Cytotoxic Concentration) value is then determined by comparing the signal obtained with the no-drug cell control with the treated cells and calculating the concentration of drug necessary to inhibit 50% of the signal in the wells treated with drugs."}, "[3]": {"assay": "MTS cytotoxicity assay, Huh 7", "assay_type": "cell-based", "conditions": "human, Huh 7 (liver) cells", "description": "as §3"}, "[4]": {"tested_on": "rRNA of Huh 7 clone A cells", "assay": "HCV replicon assay, rRNA internal control (cytotoxicity, ΔCt rRNA)", "assay_type": "cell-based, human", "description": "as §1, §2"}, "[5]": {"tested_on": "HIV (NL43 virus) in P4CCR5luc cells", "assay": "HIV screen: primary screening at 50 μM in P4CCR5luc cells (beta-gal readout)", "assay_type": "cell-based", "conditions": "Human immunodeficiency virus 1, NL43, P4 cells", "description": "HIV screen: Primary Screening of PSI compounds are tested for antiviral HIV activity at 50 μM. The cells used are P4CCR5luc cells; they are human HIV indicator cells, which are derived from Hela cells, express CD4, CXCR4, CCR5, luciferase, and a beta-gal gene under the control of HIV-1 LTR. P4CCR5 luc cells are cultivated in DMEM, 10% FBS, Penicillin, Streptomycin, and G418 at 500 μg/ml. 100 μl of P4 CCR5-luc cells are plated at 10,000 cells per well in 96 well Opaque Assay plates and incubated overnight at 37° C. The next day, the media is aspirated from the plates and replaced by 100 μl of compound freshly diluted into media at 2×50 uM, in triplicate, for 4 hours at 37° C. The cells are then infected with 100 ul NL43 virus at 5 ng of p24 per well, in the presence of 2×20 ug/ml of DEAE-Dextran for 40-42 hours. Non infected, infected no drug and AZT controls are always present in triplicate on each plate. After infection the beta-gal is quantitated using the Galacto-Star kit from Applied Biosystems using the manufacturer instructions and the luminescence measured using a Victor apparatus from Perkin-Elmer. Results are represented as percentage inhibition compare to untreated cells. The assays are performed in 2 to 3 independent experiments."}, "[6]": {"tested_on": "HBV in HepG2-AD38 cell line", "assay": "HBV AD38 assay (HBV DNA in supernatant by real time PCR)", "assay_type": "cell-based", "conditions": "Hepatitis B virus; read-out: HBV Inhibition EC90", "description": "Biological Assays HBV AD38 Assay\nThe materials required for the assay comprise the following:\nThe HepG2-AD38 cell line.\nThe culture medium for HepG2-AD38 comprises DMEM-F/12, 10% fetal bovine serum, 100 IU/ml/100 ug/ml of Penicillin/streptomycin, 50 μg/ml kanamycin, 0.3 μg/ml tetracycline, and 200 μg/ml G418.\nThe assay medium for HepG2-AD38 comprises DMEM-F/12, 10% fetal bovine serum, 1001 U/ml/100 μg/ml of penicillin/streptomycin, 50 μg/ml kanamycin, and 200 μg/ml G418 Further materials comprise Phosphate buffered saline (PBS), Biocoated 96 well plates, DNeasy 96 tissue kit (Qiagen), QIAvac 96 vacuum manifold, Micro amp optical 96 well reaction plates (Applied Biosystems), Micro amp optical caps (Applied Biosystems), Tagman Universal PCR Master Mix (Applied Biosystems), and a 7700 Sequence detector (Applied Biosystems),\nThe primers and probes for HBV DNA comprise the 1125 nM forward primer (GGACCCCTGCTCGTGTTACA) (SEQ ID NO:1), the 1125 nM reverse primer (GAGAGAAGTCCACCACGAGTCTAGA) (SEQ ID NO:2), and the 250 nM probe (FAM-TGTTGACAAGAATCCTCACAATACCAC) (SEQ ID NO:3).\nSeed 5×10^4 cells/well in 200 μl of culture medium in a 96 well biocoated plate and incubate the plate at 37° C. with 5% CO2. […]"}, "[7]": {"assay": "Toxicity, luciferase assay in P4 CCR5-luc cells", "assay_type": "cell-based", "conditions": "human, read-out: Cytotoxicity CC50, P4 Cells", "description": "P4 CCR5-luc cells are plated at 10,000 cells per well (100 ul) in 96 well Opaque Assay plates and incubated overnight at 37° C. The next day, the media is aspirated from the plates and replaced by 200 ul of compound freshly diluted into media in 5 fold dilutions from 100 μM to 0.0062 μM. After 4 days of incubation at 37° C., the luciferase activity is measured in the cell lysate using the Bright Glow kit from Promega and the luminescence measured using a Victor apparatus from Perkin-Elmer."}, "HCV S282T cells": {"tested_on": "HCV S282T cells", "assay": "HCV inhibition in S282T cells", "assay_type": "cell-based", "conditions": "Hepatitis C virus, read-out: HCV Inhibition S282T Cells EC90"}, "[8]": {"tested_on": "HIV (NL43 wild type virus) in P4 CCR5-luc cells", "assay": "HIV titration to determine EC50 on P4 CCR5-luc cells", "assay_type": "cell-based", "conditions": "Human immunodeficiency virus 1, NL43, read-out: HIV Inhibition P4 Cells EC50", "description": "HIV-Titration of PSI Activity to Determine EC50 on P4 CCR-luc Cells.\nP4 CCR5-luc cells are plated at 10,000 cells per well (100 μl) in 96 well Opaque Assay plates and incubated overnight at 37° C. The next day, the media is aspirated from the plates and replaced by 100 ul of compound freshly diluted into appropriate media (DMEM, 10% FBS, G418 500 μg/ml, penicillin/streptomycin) at 2× final concentrations in 5 fold dilutions, usually from 2×100 μM to 2×0.032 uM, in triplicate, for 4 hours at 37° C. The cells are then infected with 100 ul NL43 wild type or mutant virus, at 5 ng to 20 ng of p24 per well, in the presence of 2×20 ug/ml of DEAE-Dextran, for 40-42 hours. Non infected and infected no drug controls are always present in 12plicate on each plate. An AZT control is tested in parallel for each experiment. After infection, the beta-gal is quantitated in the cell lysate using the Galacto-Star kit from Applied Biosystems and the luminescence measured using a Victor apparatus from Perkin-Elmer. The EC50 (Effective Concentration) is calculated using a Microsoft® Excel® spreadsheet that calculates the concentration necessary to inhibit the 50% of the infection. The assay is performed in at least 2 independent experiments."}, "[9]": {"assay": "MTS cytotoxicity assay, BxPC3", "assay_type": "cell-based", "conditions": "human, BxPC3 (pancreatic) cells", "description": "as §3"}, "Cytotoxicity in PBMC": {"assay": "Cytotoxicity in PBMC", "assay_type": "cell-based"}, "[10]": {"assay": "MTS cytotoxicity assay, CEM", "assay_type": "cell-based", "conditions": "human, CEM (lymphoid) cells", "description": "as §3"}},
  "data": [
    {"smiles": "C[C@@H]1[C@H](n2ccc(N)nc2=O)O[C@@](CO)(N=[N+]=[N-])[C@H]1O", "values": [
      {"measurement": "Screen HCV Clone A Cells −log10 at 50 μM (HCV)", "setting": "[1]; 50 μM, clone A cells, HCV RNA", "value": "−1.4", "unit": "log10"},
      {"measurement": "EC90", "setting": "[1]; Hepatitis C virus, Huh-7, read-out: HCV Inhibition Clone A cells EC90", "value": 7.85, "unit": "µM"},
      {"measurement": "CC50 at 8 days", "setting": "[2]", "value": 300, "unit": "µM"},
      {"measurement": "CC50 at 8 days", "setting": "[3]", "value": "> 100", "unit": "µM"},
      {"measurement": "Screen HCV Clone A Cells −log10 at 50 μM (Rbz)", "setting": "[4]", "value": "−0.59", "unit": "log10"},
      {"measurement": "inhibition at 50 µM", "setting": "[5]", "value": 100, "unit": "%"},
      {"measurement": "EC90", "setting": "[6]", "value": 1.62, "unit": "µM"},
      {"measurement": "CC50 at 4 days", "setting": "[7]", "value": "> 100", "unit": "µM"},
      {"measurement": "EC90", "setting": "HCV S282T cells", "value": 73.1, "unit": "µM"},
      {"measurement": "EC50", "setting": "[8]", "value": 0.18, "unit": "µM"},
      {"measurement": "CC50 at 8 days", "setting": "[9]", "value": 400, "unit": "µM"},
      {"measurement": "CC50", "setting": "Cytotoxicity in PBMC", "value": "> 100", "unit": "µM"},
      {"measurement": "CC50 at 8 days", "setting": "[10]", "value": 400, "unit": "µM"}
    ]}
  ]
}
